Here are results for one compound from US11337976B2 (Plexxikon Inc., priority 2011, dated 2022).

Broadly, the IC50 is the midpoint of a concentration-inhibition curve. A lower IC50 goes with greater potency in that assay.

One assay concerns the target B-Raf V600E (Homo sapiens (Human), UniProt P15056, V600E). The assay can be described thus: B-Raf V600E kinase activity biochemical assay (AlphaScreen, biotin-MEK1 substrate). To be noted: 100 μM ATP. The protocol: Assays for biochemical and cell based activity are known in the art, for example, as described in PCT publication WO 2007/002433, the disclosure of which is hereby incorporated by reference as it relates to such assays. For example, the biochemical activity IC50 values are determined with respect to inhibition of B-Raf V600E kinase activity or p-Erk kinase activity, where inhibition of phosphorylation of a peptide substrate is measured as a function of compound concentration. Compounds to be tested are diluted in dimethyl sulfoxide to a concentration of 0.1 mM. These are serially diluted 15 μL into 30 μL of dimethyl sulfoxide seven times in 96 well plates for a total of 8 dilution points, and for each dilution point 1 μL is added to a well of an assay plate. Plates are prepared such that each well in a 384 well plate contains 1 μL of compound in 10 μL volume with 0.1 ng Raf enzyme (i.e. any of B-Raf, c-Raf-1 or B-Raf V600E, Upstate Biotechnology or preparead by methods known to one of skill in the art), 50 mM HEPES, pH 7.0, 50 mM NaCl, 2 mM MgCl2, 1 mM MnCl2, 0.01% Tween-20, 1 mM DTT, and 100 nM biotin-MEK1 as substrate. The reaction is started with addition of 10 μL of 200 μM ATP (i.e. final 100 μM ATP). […] The plates are incubated for 3 hours at room temperature and read on Envision reader (Perkin Elmer). […]
A general note: Bead proximity is the source of the signal in Alpha formats.

For assay [1], the system named is A375 melanoma cells (B-Raf V600E mutation). In words: A375 (A375_P-ERK) cell activity / cell growth inhibition assay. The format is cell-based, human. To be noted: Homo sapiens, A-375; A375 cells (text: A375_P-ERK).

Chain of B-Raf V600E (P15056 whole entry V600E): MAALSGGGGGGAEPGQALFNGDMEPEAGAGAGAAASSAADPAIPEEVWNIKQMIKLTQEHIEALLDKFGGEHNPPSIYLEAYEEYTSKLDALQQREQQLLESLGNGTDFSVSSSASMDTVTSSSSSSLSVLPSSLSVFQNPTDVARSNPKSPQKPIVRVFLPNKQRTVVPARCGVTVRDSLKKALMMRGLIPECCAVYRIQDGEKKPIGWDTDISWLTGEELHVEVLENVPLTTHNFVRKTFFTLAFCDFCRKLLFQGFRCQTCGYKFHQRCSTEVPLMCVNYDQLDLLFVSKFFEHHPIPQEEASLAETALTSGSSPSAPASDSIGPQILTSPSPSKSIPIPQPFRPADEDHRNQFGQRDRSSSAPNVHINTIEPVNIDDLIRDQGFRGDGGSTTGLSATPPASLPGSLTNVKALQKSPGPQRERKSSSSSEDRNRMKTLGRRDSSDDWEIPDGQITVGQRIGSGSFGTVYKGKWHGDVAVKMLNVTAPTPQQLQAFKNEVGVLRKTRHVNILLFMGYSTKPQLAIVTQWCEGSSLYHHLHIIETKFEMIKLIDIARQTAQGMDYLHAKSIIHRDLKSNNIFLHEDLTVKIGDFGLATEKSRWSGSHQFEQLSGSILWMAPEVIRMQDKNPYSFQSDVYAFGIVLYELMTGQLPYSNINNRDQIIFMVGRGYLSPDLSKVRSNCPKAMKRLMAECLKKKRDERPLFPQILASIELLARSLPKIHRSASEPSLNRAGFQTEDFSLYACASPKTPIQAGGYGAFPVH

Take `CCN(C)S(=O)(=O)Nc1ccc(F)c(C(=O)c2c[nH]c3ncc(-c4ccc(Cl)cc4)cc23)c1F` [P-0013]: the results for the concentration for half-maximal inhibition (IC50) (against B-Raf V600E; in assay [1]) were < 0.1 µM and < 1 µM, respectively.
